In US20070021391A1, “Preventive/remedy for urinary disturbance” (priority 2003, published 2007):
“Also recorded” adds a separate entry of the source. Like-named read-outs stand apart in the source and are kept apart here.

How the values were obtained:
[1] = biological target: Butyrylcholine esterase (Rattus norvegicus, UniProt Q9JKC1); details: cited from earlier work
[2] = biological target: T1, butyrylcholine esterase of human serum origin (Homo sapiens, UniProt P06276); test: biochemical; type: biochemical
T1 construct: butyrylcholine esterase of human serum origin; purchased Biogenesis, Poole, UK; host or cells: human serum
T1 sequence (P06276 29-602): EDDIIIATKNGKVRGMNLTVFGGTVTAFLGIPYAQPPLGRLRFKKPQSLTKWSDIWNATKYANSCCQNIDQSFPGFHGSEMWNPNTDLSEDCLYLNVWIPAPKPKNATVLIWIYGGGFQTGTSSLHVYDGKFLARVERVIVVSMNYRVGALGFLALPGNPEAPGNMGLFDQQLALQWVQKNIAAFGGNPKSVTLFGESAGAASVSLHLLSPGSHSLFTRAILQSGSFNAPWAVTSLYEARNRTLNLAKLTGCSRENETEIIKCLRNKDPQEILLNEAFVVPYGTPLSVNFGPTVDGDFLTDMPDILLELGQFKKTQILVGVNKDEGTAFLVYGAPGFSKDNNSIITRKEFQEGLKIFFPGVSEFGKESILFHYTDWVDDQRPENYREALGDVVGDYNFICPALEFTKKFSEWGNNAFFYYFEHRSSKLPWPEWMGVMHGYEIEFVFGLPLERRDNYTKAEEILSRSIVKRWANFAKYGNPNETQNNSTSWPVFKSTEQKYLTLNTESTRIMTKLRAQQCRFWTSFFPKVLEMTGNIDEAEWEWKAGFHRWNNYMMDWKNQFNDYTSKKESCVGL
Method: (§2) The AChE inhibitory activity and the BuChE inhibitory activity were determined by a thiocholine method (Ellman method) using acetylcholine esterase of human erythrocyte origin (Sigma, St. Louis, Mo., USA) and butyrylcholine esterase of human serum origin (Biogenesis, Poole, UK). Acetylcholine esterase or butyrylcholine esterase was diluted to a concentration of 0.2 IU/mL with 80 mM tris-HCL buffers (pH=7.4) containing 0.3% bovine serum albumin (BSA) to prepare an enzyme preparation. […] The stock solution was diluted at 3-fold common ratio with 10% DMSO and 80 mM tris-HCl buffers containing 0.3% BSA. On a 96 wells microplate, 20 μL of the drug solution with a given concentration, 30 μL of 80 mM tris-HCl buffers containing 0.3% BSA and 50 μL of the enzyme preparation were distributed, and incubated at room temperature for 1 hour after shaking for 10 seconds. […] For the respective drugs, the test was repeated twice. The % of control of the increase in light absorption was calculated at each concentration with respect to the respective drugs. % of control=increase in light absorption of drug/increase in light absorption of control×100

[3] = test system: bladder muscle; design: species or system guinea pig
[4] = test system: male SD rat; test: Acetylcholine inductive salivation in rat (Example 5); type: in vivo; details: for Amount of saliva secreted: rat
Method: (§1) A male SD rat (CLEA Japan Inc.) with a body weight of about 400 g or a Hartley male guinea pig with a body weight of 400 to 500 g (Japan SLC) were used. After urethane anesthesia, sanitary cotton preliminarily weighed was inserted in the mouth of the animal and acetylcholine was intravenously administrated. After 5 minutes, the sanitary cotton was taken out to be weighed and the amount of saliva secreted was measured. The drug was intravenously administrated at 10 min before the administration of acetylcholine. The effect of oxybutynin was analyzed by paired t calibration and the concomitant use effect of the compound A was analyzed by William calibration.

[5] = test system: Hartley male guinea pig, urethane anesthesia; test: Pressure/flow study using guinea pig (Example 3); type: in vivo; details: for Amount of urination, proportion for value before administration (%) / At maximum urine flow rate Inner pressure of bladder, proportion for value before administration (%) / Maximum urine flow rate, proportion for value before administration (%): i.v.; for Bladder compliance, proportion for value before administration (%) / Bladder volume, proportion for value before administration (%): iv
Method: A Hartley male guinea pig of 5 weeks old (Japan SLC) was used. After urethane anesthesia, the medial incision of the lower abdomen was carried out, and the bladder was exposed. Two injection needles (20G) with which a polyethylene tube (PE-100) was linked were inserted in the bladder, and one needle was used for injection of saline and another needle was used for measurement of the inner pressure of the bladder. The injection of saline was continuously carried out at a rate of 18 mL/h using a syringe pump (SP-100S, JMS, and Hiroshima), the injection was stopped after intermittent urination was confirmed 3 times at minimum, and the saline in the bladder was removed by suction. Injection was started again, and the injection was stopped when the raise of the inner pressure of the bladder just before urination was confirmed. The amount of urine excreted was measured by an electronic weighing machine (HX-400, A&D, and Tokyo) and the inner pressure of the bladder was measured using a pressure transducer (AP641G, NIPPON KODEN Corporation). The analogue data of the weight of urine and the inner pressure of the bladder were inputted in a multi-channel data analyzer (MP-100A-CE, Biopac systems), and analyzed by a proprietary software (Acqknowledge, Biopac systems). The sampling interval of data was 0.1 second and a low pass filter was applied to the data of discharge amount and urine flow rate at 0.5 Hz in order to remove noise. A delay time of 0.1 second in weighing the urine was rectified, and the urine flow rate was determined by differentiating the value of discharge amount. After a value before twice administration of the drug was measured, the drugs (the compound A, distigmine, neostigigmine and bethanechol) were intravenously administrated. Saline in the bladder was extracted after 10 minutes of administration of the compound A, bethanechol and neostigigmine and after 30 minutes of administration of distigmine, and injection was started again to measure data. The drugs were dissolved with distilled water so that administration volume was 0.5 mL/kg. Parameters (bladder volume, the amount of urination, the maximum urine flow rate, the inner pressure of the bladder at the maximum urine flow, bladder compliance) below were measured. The bladder compliance was calculated from intersection point (the threshold of bladder volume, threshold pressure) which was obtained by determining regression line in the respective curves of the inner pressure of the bladder at collection of urine and urinary reflex. The change rate before and after administration of the drug was calculated for the respective parameters and the calibration of significant difference was carried out by a solvent administration group and Dunnett calibration (Table 6 and Table 7).

[6] = test system: Hartley male guinea pig; test: Acetylcholine inductive salivation in guinea pig (Example 5); type: in vivo
Method: as §1

[7] = test system: Hartley male guinea pig, urethane anesthesia; test: Urine flow dynamic parameters with oxybutynin and compound A (Example 6); type: in vivo; details: for Bladder volume, proportion for value before administration (%) / Maximum urine flow rate, proportion for value before administration (%) / Urination efficiency, proportion for value before administration (%): iv + oxybutynin 1 mg/kg, iv
Method: A Hartley male guinea pig with a body weight of about 500 g (Japan SLC Hamamatsu) was used. After urethane anesthesia (1.4 g/kg, i.p.), the medial incision of the lower abdomen was carried out, and the bladder was exposed. Two injection needles (20G) with which a polyethylene tube (PE-100, Becton Dickinson, Franklin Lakes, N.J., USA) was linked were inserted in the bladder, and one needle was used for injection of saline and another needle was used for measurement of the inner pressure of the bladder. Further, a cannula (PE-10, Becton Dickinson) for injection of phenylephrine was inserted in right common jugular vein. […] The amount of urine eliminated was measured by an electronic weighing machine (GX-400, A&D, Tokyo) and the inner pressure of the bladder was measured using a pressure transducer (AP641G, NIPPON KODEN Corporation, Tokyo). The analogue data of the weight of urine and the inner pressure of the bladder were inputted in a multi-channel data analyzer (MP-100A-CE, Biopac systems), and analyzed by a proprietary software (Acqknowledge 3.7.1, Biopac systems). The sampling interval of data was 0.1 sec and a low pass filter was applied to the data of discharge amount and urine flow rate at 0.5 Hz in order to remove noise. A delay time of 0.1 sec in weighing the urine was rectified, and the urine flow rate was determined by differentiating the value of discharge amount. The dynamic state parameter of the flow of urine below was measured. A bladder volume, the maximum urine flow rate, urination efficiency (=amount of urination/bladder volume). The effect of oxybutynin was analyzed by the paired t calibration and the concomitant use effect of the compound A was analyzed by Dunnett calibration.

[8] = biological target: T2, acetylcholine esterase of human erythrocyte origin (Homo sapiens, UniProt P22303); test: biochemical; type: biochemical
T2 construct: acetylcholine esterase of human erythrocyte origin; purchased Sigma, St. Louis, Mo., USA; host or cells: human erythrocytes
T2 sequence (P22303 32-617 isoform P22303-2 limits assumed): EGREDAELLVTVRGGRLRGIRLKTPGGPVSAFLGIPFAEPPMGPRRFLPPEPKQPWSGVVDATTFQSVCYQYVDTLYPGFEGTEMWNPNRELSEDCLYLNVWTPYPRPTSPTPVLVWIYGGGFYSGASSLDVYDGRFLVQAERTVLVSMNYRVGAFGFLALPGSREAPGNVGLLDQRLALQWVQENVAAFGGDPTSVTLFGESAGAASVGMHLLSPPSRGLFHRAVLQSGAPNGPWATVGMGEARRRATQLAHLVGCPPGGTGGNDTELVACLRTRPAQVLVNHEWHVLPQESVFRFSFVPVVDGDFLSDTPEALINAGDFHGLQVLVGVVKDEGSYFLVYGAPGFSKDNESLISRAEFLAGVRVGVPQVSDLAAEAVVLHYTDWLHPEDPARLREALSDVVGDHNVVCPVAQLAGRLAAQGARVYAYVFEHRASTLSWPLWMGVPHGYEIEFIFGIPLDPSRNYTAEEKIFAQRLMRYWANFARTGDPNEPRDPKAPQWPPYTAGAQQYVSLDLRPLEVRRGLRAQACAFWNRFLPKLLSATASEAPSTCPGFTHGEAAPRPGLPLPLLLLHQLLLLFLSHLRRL
Method: as §2

Sequence of Butyrylcholine esterase (Q9JKC1 24-597): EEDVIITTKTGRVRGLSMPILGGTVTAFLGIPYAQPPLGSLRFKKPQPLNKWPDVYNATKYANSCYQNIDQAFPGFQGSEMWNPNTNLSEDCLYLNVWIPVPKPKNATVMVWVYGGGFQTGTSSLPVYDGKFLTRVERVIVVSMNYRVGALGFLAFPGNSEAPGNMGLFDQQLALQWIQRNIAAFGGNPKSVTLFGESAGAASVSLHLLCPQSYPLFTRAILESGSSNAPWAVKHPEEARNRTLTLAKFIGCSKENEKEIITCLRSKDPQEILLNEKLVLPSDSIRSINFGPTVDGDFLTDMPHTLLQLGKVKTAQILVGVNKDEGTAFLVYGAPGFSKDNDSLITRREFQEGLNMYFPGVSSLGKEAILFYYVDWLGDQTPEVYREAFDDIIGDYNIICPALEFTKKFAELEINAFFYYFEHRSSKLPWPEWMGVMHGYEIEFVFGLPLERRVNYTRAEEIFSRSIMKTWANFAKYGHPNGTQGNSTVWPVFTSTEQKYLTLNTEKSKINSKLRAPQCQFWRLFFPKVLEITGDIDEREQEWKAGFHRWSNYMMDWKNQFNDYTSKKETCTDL

CNC(=O)Oc1ccc2c(c1)[C@]1(C)CCN(C)[C@@H]1N2C [Physostigmine]
IC50 ([1]; Literature 4, read-out: Butyrylcholine esterase inhibitory activity (IC50)): 16 nM | IC50 ([1]; Literature 6, read-out: Butyrylcholine esterase inhibitory activity (IC50)): 15 nM

O=C(CCC1CCN(Cc2cccc(F)c2)CC1)c1cc2c3c(c1)CCN3C(=O)CC2 [Compound A, 8-[3-[1-[(3-fluorophenyl)methyl]-4-piperidinyl]-1-oxopropyl]-1,2,5,6-tetrahydro-4H-pyrrolo[3,2,1-ij]quinolin-4-one]
inhibitory activity for human butyrylcholine esterase [2]: did not show inhibitory activity for human butyrylcholine esterase up to 10^−5 M | IC50 ([2]; mean value of twice tests, read-out: Butyrylcholine esterase IC50): > 10000 nM | Tension (%) ([3]; 0.003 μM, 30 minutes, change of basic tension, 100 mM KCl contraction = 100%): −0.55 ± 0.60% | Tension (%) ([3]; 0.01 μM, 30 minutes, change of basic tension, 100 mM KCl contraction = 100%): −0.26 ± 0.38% | Tension (%) ([3]; 0.03 μM, 30 minutes, change of basic tension, 100 mM KCl contraction = 100%): 0.13 ± 0.80% | Tension (%) ([3]; 0.1 μM, 30 minutes, change of basic tension, 100 mM KCl contraction = 100%): −0.74 ± 0.60% | Tension (%) ([3]; Table 5: Compound A 0.1 μM with iso-OMPA 10 μM): 1.96 ± 0.87 % | Tension (%) ([3]; Table 5: Compound A 0.1 μM with iso-OMPA 100 μM): 5.43 ± 1.17 % | Tension (%) ([3]; Table 5: Compound A 0.1 μM, iso-OMPA 0 μM): −0.47 ± 0.17% | effect on basic tension ([3]; compound A used in combination with iso-OMPA): significant increase in the basic tension was confirmed | effect on basic tension ([3]; drug alone): did not influence the basic tension | action on acetylcholine-induced secretion of saliva ([4]; rat and guinea pig (Tables 9 and 10)): significantly antagonized | Amount of saliva secreted ([4]; Compound A 0.001 mg/kg + oxybutynin 0.1 mg/kg + acetylcholine 1 mg/kg): 0.22 ± 0.02 g | Amount of saliva secreted ([4]; Compound A 0.003 mg/kg + oxybutynin 0.1 mg/kg + acetylcholine 1 mg/kg): 0.26 ± 0.02 g | Amount of saliva secreted ([4]; Compound A 0.01 mg/kg + oxybutynin 0.1 mg/kg + acetylcholine 1 mg/kg): 0.49 ± 0.03 g | Amount of urination, proportion for value before administration (%) ([5]; 0.003 mg/kg): 150.2 ± 10.0 % | At maximum urine flow rate Inner pressure of bladder, proportion for value before administration (%) ([5]; 0.003 mg/kg): 117.5 ± 6.2% | Maximum urine flow rate, proportion for value before administration (%) ([5]; 0.003 mg/kg): 112.1 ± 9.7 % | Bladder compliance, proportion for value before administration (%) ([5]; 0.003 mg/kg): 75.2 ± 4.8% | Bladder volume, proportion for value before administration (%) ([5]; 0.003 mg/kg): 94.6 ± 5.8% | Amount of urination, proportion for value before administration (%) ([5]; 0.01 mg/kg): 165.2 ± 18.2 % | At maximum urine flow rate Inner pressure of bladder, proportion for value before administration (%) ([5]; 0.01 mg/kg): 110.9 ± 6.0% | Maximum urine flow rate, proportion for value before administration (%) ([5]; 0.01 mg/kg): 124.4 ± 10.3 % | Bladder compliance, proportion for value before administration (%) ([5]; 0.01 mg/kg): 82.6 ± 2.6% | Bladder volume, proportion for value before administration (%) ([5]; 0.01 mg/kg): 101.7 ± 5.0% | Amount of urination, proportion for value before administration (%) ([5]; 0.03 mg/kg): 164.0 ± 13.4 % | At maximum urine flow rate Inner pressure of bladder, proportion for value before administration (%) ([5]; 0.03 mg/kg): 116.9 ± 8.4% | Maximum urine flow rate, proportion for value before administration (%) ([5]; 0.03 mg/kg): 133.5 ± 15.3 % | Bladder compliance, proportion for value before administration (%) ([5]; 0.03 mg/kg): 95.9 ± 18.0% | Bladder volume, proportion for value before administration (%) ([5]; 0.03 mg/kg): 117.2 ± 9.0 % | change of the parameters at urination and at collection of urine (text) ([5]; intravenous administration): increased significantly the amount of urination and the maximum urine flow rate at 0.003 mg/kg or more; also recorded: the increase of the bladder volume was confirmed at 0.03 mg/kg, and did not influence the bladder compliance | Amount of saliva secreted ([6]; Compound A 0.003 mg/kg + oxybutynin 1 mg/kg + acetylcholine 1 mg/kg): 0.17 ± 0.03 g | Amount of saliva secreted ([6]; Compound A 0.010 mg/kg + oxybutynin 1 mg/kg + acetylcholine 1 mg/kg): 0.27 ± 0.02 g | Bladder volume, proportion for value before administration (%) ([7]; Compound A 0.003 mg/kg): 21.07 ± 4.65% | Maximum urine flow rate, proportion for value before administration (%) ([7]; Compound A 0.003 mg/kg): −34.88 ± 8.22% | Urination efficiency, proportion for value before administration (%) ([7]; Compound A 0.003 mg/kg): −61.67 ± 7.22% | Bladder volume, proportion for value before administration (%) ([7]; Compound A 0.01 mg/kg): 24.73 ± 7.05% | Maximum urine flow rate, proportion for value before administration (%) ([7]; Compound A 0.01 mg/kg): −9.04 ± 5.94 % | Urination efficiency, proportion for value before administration (%) ([7]; Compound A 0.01 mg/kg): −30.23 ± 10.48 % | action on bladder volume, maximum urine flow rate and urination efficiency ([7]; oxybutynin 1 mg/kg, compound A 0.003, 0.01 mg/kg with oxybutynin): acted antagonistically against the lowering of the maximum urine flow rate and urination efficiency but did not influence the increase of bladder volume | Acetylcholine esterase selective inhibitory activity [8]: ≥ 6700 fold | inhibition of the activity of human acetylcholine esterase [8]: inhibited the activity of human acetylcholine esterase | Selectivity b/a ([8]; BuChE IC50/AChE IC50 (Table 2)): >6700 | IC50 ([8]; mean value of twice tests, read-out: Acetylcholine esterase IC50): 1.5 nM
